Assay results as given in BindingDB's records for doi:10.1016/j.bmc.2010.06.025 (Wayne State University, 2010).

What was measured:
D(3) dopamine receptor = D(3) dopamine receptor (Rattus norvegicus, UniProt P19020); experiment: Displacement of [3H]spiperone from rat D3 receptor expressed in HEK293 cells
D(2) dopamine receptor = D(2) dopamine receptor (Rattus norvegicus, UniProt P61169); experiment: Displacement of [3H]spiperone from rat D2 receptor expressed in HEK293 cells
Sequence of D(2) dopamine receptor (P61169 whole entry): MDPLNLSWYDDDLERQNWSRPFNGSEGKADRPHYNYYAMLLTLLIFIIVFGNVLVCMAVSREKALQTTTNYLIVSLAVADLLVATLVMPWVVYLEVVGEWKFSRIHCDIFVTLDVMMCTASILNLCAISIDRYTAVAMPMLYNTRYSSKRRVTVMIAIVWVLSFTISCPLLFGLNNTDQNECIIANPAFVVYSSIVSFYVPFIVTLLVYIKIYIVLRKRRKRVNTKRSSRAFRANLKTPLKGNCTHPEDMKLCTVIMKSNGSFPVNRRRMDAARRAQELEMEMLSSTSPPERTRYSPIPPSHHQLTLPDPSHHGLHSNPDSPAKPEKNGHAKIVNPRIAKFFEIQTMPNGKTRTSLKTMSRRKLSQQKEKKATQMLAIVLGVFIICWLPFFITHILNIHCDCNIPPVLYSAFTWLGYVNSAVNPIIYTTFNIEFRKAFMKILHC

Sequence of D(3) dopamine receptor (P19020 whole entry): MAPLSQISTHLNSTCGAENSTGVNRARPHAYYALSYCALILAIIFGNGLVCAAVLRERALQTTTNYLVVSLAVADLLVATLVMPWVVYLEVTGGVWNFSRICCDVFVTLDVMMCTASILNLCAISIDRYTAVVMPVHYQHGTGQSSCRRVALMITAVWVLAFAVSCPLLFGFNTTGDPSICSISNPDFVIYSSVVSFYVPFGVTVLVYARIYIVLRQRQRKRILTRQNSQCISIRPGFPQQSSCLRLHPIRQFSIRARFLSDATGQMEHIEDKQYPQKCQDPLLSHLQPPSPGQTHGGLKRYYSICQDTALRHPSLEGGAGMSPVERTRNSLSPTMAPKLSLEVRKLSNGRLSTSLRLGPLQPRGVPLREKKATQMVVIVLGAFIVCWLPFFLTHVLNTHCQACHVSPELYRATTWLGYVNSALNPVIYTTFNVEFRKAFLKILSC

CCCN(CCN1CCN(c2ccc(-c3ccncc3)cc2)CC1)C1CCc2ccc(O)cc2C1 (stereo not drawn) [(+)-7-(propyl(2-(4-(4-(pyridin-4-yl)-phenyl)piperazin-1-yl)ethyl)amino)-5,6,7,8-tetrahydronaphthalen-2-ol]
Ki (D(3) dopamine receptor): 16.2 nM | Ki (D(2) dopamine receptor): 399 nM
